Test results from patent US20250144227A1, “C-16 MODIFIED TRIOXACARCINS, ANTIBODY DRUG CONJUGATES, AND USES THEREOF” (President and Fellows of Harvard College, priority 2021, published 2025).
Read-outs that look alike come from different tables or passages of the source. Values belong to the molecule of their own block, whether it stands above or below them.

Assays:
MES-SA/Dx-5 cells = assay: Cell proliferation assay (resazurin, CellTiter-Blue), MES-SA/Dx-5 cells; type: cell-based; conditions: Homo sapiens
Procedure: (§1) Cell Culture: All cell-culture work was conducted in a class II biological safety cabinet. H460 cells (P2-P4, American Type Culture Collection) were maintained in RPMI-1640 medium supplemented with 10% fetal bovine serum (FBS). HL-60 cells (P2-P4, American Type Cuture Collection) were maintained in RPMI-1640 medium supplemented with 10% FBS. MES-SA/Dx-5 cells (P2-P4, European Collection of Authenticated Cell Cultures) were maintained in McCoy's 5A medium supplemented with 10% FBS.
(§2) Cell Proliferation Assay: H460 and MES-SA/Dx-5 cells were grown to approximately 80% confluence, and then were trpysinized, collected, and pelleted by centrifugation (10 min at 183 x g, 24° C.), and HL-60 cells were grown to confluence and directly pelleted by centrifugation (10 min at 183 × g, 24° C.). The supernatant was discarded and the cell pellet was resuspended in 10 mL of fresh medium. A sample was diluted 10-fold in fresh medium, and the concentration of cells was determined using a hemacytometer. The cell suspension was diluted to a concentration of 3000 cells/100 μL. The wells of a pre-sterilized 96-well plate were charged with 100 μL per well of the diluted cellular suspension. The plate was incubated for 24 h at 37° C. (5% CO2).
(§3) Stock solutions of each compound in DMSO were diluted with the appropriate media to 100 nM solutions (1% DMSO), which were then serially diluted with the appropriate media, and 100-uL aliquots of the resulting solutions were added to the wells containing adhered cells to achieve final concentrations of 0.39 nM to 50 nM. After incubating at 37° C. for 72 h (5% CO2), 20 μL of resazurin solution (Promega CellTiter-Blue® Cell Viability Assay) was added to each well. After incubating at 37° C. for 2.0 h (5% CO2), the fluorescence (544 nm excitation/590 nm emission) was recorded using a microplate reader (SpectraMax PLUS384) as a measure of viable cells.
(§4) Percent growth inhibition was calculated for each well, based upon the following formula: Percent growth inhibition=100×(S−B0)/(Bt−B0) where S is the sample fluorescence, Bt is the average fluorescence of an untreated population of cells at the completion of the assay, and B0 is the average fluorescence of an untreated population of cells at the beginning of the assay.
(§5) Each compound was assayed at eight separate concentrations per experiment. The percent inhibition at each concentration was plotted against log (concentration), and a curve fit was generated using the XLfit4 plugin (IDBS Software) running in Excel (Microsoft). GI50 values were computed to reflect the concentrations at which the resulting curves pass through 50% inhibition.

[1] = Drug-linker stability assay (LC-MS); type: physicochemical; conditions: after 1 week, physiologically relevant pH and temperature (37 C)
Procedure: Stability Assay: In a 1.5 mL screw-top conical plastic vial, 42 (FIG. 1A) or 39 (FIG. 1B) was dissolved in 270 μL of DMSO (5 mM). 12 μL of this DMSO drug-linker solution was mixed with 576 μL pH 5.0 sodium acetate buffer (50 mM sodium acetate, 100 mM NaCl, 4 mM EDTA). 1-naphthalene acetic acid in DMSO (12 μL, 5 mM, 1 equiv.) was added as an internal standard. The vial was then placed in a heating block at 37 C and protected from direct light. 25 μL aliquots of the reaction mixture were removed at 0 h, 4 h, 24 h, 48 h, 72 h, and 1 week and analyzed by LC-MS. LC-MS peaks were integrated using Agilent OpenLab ChemStation and the areas of each peak were normalized to 1-napthalene acetic acid at 280 nM. Percent drug-linker remaining is defined as the normalized peak area at a given time point divided by the normalized peak area at 0 hours x 100%. Each assay was also performed at pH 7.4 (phosphate-buffered solution, Corning), and assays at each pH value were performed with and without the addition of 8 mM N-acetylcysteine.

[2] = system: Ramos cells (B lymphocyte cells); assay: Growth inhibition of Ramos cells; type: cell-based; conditions: Homo sapiens
Procedure: as §3, §4, §5

cathepsin B = biological target: T1, cathepsin B (Homo sapiens, UniProt P07858); assay: Drug-linker release assay with cathepsin B (LC-MS); type: in vitro ADME; conditions: cathepsin B enzyme solution in buffer; cathepsin B added, pH 5.0 sodium acetate buffer, 37 C; read-out: Half-life of liberation of the C16 primary amine warhead
T1 construct: purchased Enzo Life Sciences
Procedure: Release Assay: In a 1.5 mL screw-top conical plastic vial, 42 was dissolved in 270 μL of DMSO (5 mM). 12 μL of this DMSO drug-linker solution was mixed with a DMSO solution of N-acetylcysteine (10 mM, 12 μL, 2 equiv.). To the solution was then added 510 μL pH 5.0 sodium acetate buffer (50 mM sodium acetate, 100 mM NaCl, 4 mM EDTA, 8 mM N-acetylcysteine). 1—Naphthalene acetic acid in DMSO (12 μL, 5 mM, 1 equiv.) was added as an internal standard. The vial was then placed in a heating block at 37 C for 30 minutes. After 30 minutes, 54 μL of cathepsin B solution (379 U/mL, Enzo Life Sciences) was added. The vial was returned to the heating block at 37 C and protected from direct light. 25 μL aliquots of the reaction mixture were removed at 0 min, 20 min, 40 min, 60 min, 120 min, and 180 min and analyzed by LC-MS. LC-MS peaks were integrated using Agilent OpenLab ChemStation and the areas of each peak were normalized to 1-napthalene acetic acid at 280 nM. Percent drug-linker remaining is defined as the normalized peak area at a given time point divided by the normalized peak area at 0 hours×100% (FIG. 2A). A similar procedure was used for the release assay of 39, using glucuronidase instead of cathepsin B (FIG. 2B).

[3] = patients with metastatic cancer; only problematic at doses beyond those which affected tumor volume decrease; cited from earlier work
H460 cells = assay: Cell proliferation assay (resazurin, CellTiter-Blue), H460 cells; type: cell-based; conditions: for GI50: Homo sapiens
Procedure: as §1, §2, §3, §4, §5

[4] = 1H NMR studies of decomposition of the C16 thiol; type: physicochemical; conditions: on an hour time scale
[5] = MES-SA/Dx5, MES-SA/Dx-5 cells, 72 h incubation, read-out: GI50
[6] = NCI-H460, H460 cells, 72 h incubation, read-out: GI50

Molecule: CCCOCC12OC3c4c(C)cc5c(OC)c6c(c(O)c5c4O[C@](OC)(C3O1)[C@@]21CO1)C(=O)CCC6 (stereo partly drawn) [TP-5]
GI50 (MES-SA/Dx-5 cells; [5]): 0.025 µM

Molecule: COc1c2c(c(O)c3c4c(c(C)cc13)C1OC3(CO)OC1[C@@](OC)(O4)[C@@]31CO1)C(=O)CCC2 (stereo partly drawn) [TP-1]
GI50 (MES-SA/Dx-5 cells; MES-SA/Dx5, 72 h): 0.008 µM

Molecule: C#CCOCC12OC3c4c(C)cc5c(OC)c6c(c(O)c5c4O[C@](OC)(C3O1)[C@@]21CO1)C(=O)CCC6 (stereo partly drawn) [TP-7]
GI50 (MES-SA/Dx-5 cells; MES-SA/Dx5, 72 h): 0.015 µM

Molecule: COc1c2c(c(O)c3c4c(c(C)cc13)C1OC3(COCc5ccccc5)OC1[C@@](O)(O4)[C@@]31CO1)C(=O)CCC2 (stereo partly drawn) [TP-4]
GI50 (MES-SA/Dx-5 cells; [5]): > 0.1 µM

Molecule: COc1c2c(c(O)c3c4c(c(C)cc13)[C@@H]1O[C@]3(CNC(=O)OCc5ccc(O[C@@H]6O[C@H](C(=O)O)[C@@H](O)[C@H](O)[C@H]6O)c(-n6cc(COCCOCCOCCOCCN7C(=O)C=CC7=O)nn6)c5)O[C@H]1[C@@](OC)(O4)[C@@]31CO1)C(=O)CCC2 [compound 39, (2S,3S,4S,5R,6S)-6-(2-(4-(13-(2,5-Dioxo-2,5-dihydro-1H-pyrrol-1-yl)-2,5,8,11-tetraoxatridecyl)-1H-1,2,3-triazol-1-yl)-4-((((((2R,2′R,3a′R,4'S,13a′R)-12′-hydroxy-7′,13a′-dimethoxy-5′-methyl-11′-oxo-3a′,8′,9′,10′,11′,13a′-hexahydro-2′H, 4′H-spiro [oxirane-2,1′-[2.4]epoxyfuro[3,2-b]naphtho[2,3-h]chromen]-2′-yl)methyl)carbamoyl)oxy)methyl)phenoxy)-3,4,5-trihydroxytetrahydro-2H-pyran-2-carboxylic acid]
Percent drug-linker remaining [1]: 75%

Molecule: C=CCOCC12OC3c4c(C)cc5c(OC)c6c(c(O)c5c4O[C@](OC)(C3O1)[C@@]21CO1)C(=O)CCC6 (stereo partly drawn) [TP-6]
GI50 (MES-SA/Dx-5 cells; [5]): 0.017 µM

Molecule: COc1c2c(c(O)c3c4c(c(C)cc13)C1OC3(CN=[N+]=[N-])OC1[C@@](OC)(O4)[C@@]31CO1)C(=O)CCC2 (stereo partly drawn) [TP-9]
GI50 (MES-SA/Dx-5 cells; MES-SA/Dx5, 72 h): 0.033 µM

GI50 [2]: 0.02 ± 0.005 µM
Molecule: COc1c2c(c(O)c3c4c(c(C)cc13)C1OC3(C)OC1[C@@](OC)(O4)[C@@]31CO1)C(=O)CCC2 (stereo partly drawn) [compound 45, (2R,2′R,3a'S,4'S)-12′-hydroxy-7′,13a′-dimethoxy-2′,5′-dimethyl-3a′ 4′,8′,9′,10′,13a′-hexahydro-2′H,11′H-spiro [oxirane-2,1′-[2,4]epoxyfuro[3,2-b]naphtho[2,3-h]chromen]-11′-one]

GI50 [2]: 0.0026 ± 0.0008 µM
Molecule: COCC12OC3c4c(C)cc5c(OC)c6c(c(O)c5c4O[C@](OC)(C3O1)[C@@]21CO1)C(=O)CCC6 (stereo partly drawn) [compound 43, (2R,2′R,3a′R,4'S, 13a′R)-12′-hydroxy-7′, 13a′-dimethoxy-2′-(methoxymethyl)-5′-methyl-3a′ 4′,8′,9′,10′,13a′-hexahydro-2′H, 11′H-spiro[oxirane-2,1′-[2,4]epoxyfuro[3,2-b]naphtho[2,3-h]chromen]-11′-one]

Molecule: COc1c2c(c(O)c3c4c(c(C)cc13)[C@H]1O[C@]3(CNC(=O)OCc5ccc(NC(=O)[C@H](C)NC(=O)[C@@H](NC(=O)CCOCCOCCOCCOCCN6C(=O)C=CC6=O)C(C)C)cc5)O[C@@H]1C(OC)(O4)[C@@]31CO1)C(=O)CCC2 (stereo partly drawn) [compound 42, 4-((17S,20S)-1-(2,5-dioxo-2,5-dihydro-1H-pyrrol-1-yl)-17-isopropyl-20-methyl-15,18-dioxo-3,6,9,12-tetraoxa-16,19-diazahenicosan-21-amido)benzyl (((2R,2′R,3a'S,4′R)-12′-hydroxy-7′,13a′-dimethoxy-5′-methyl-11′-oxo-3a′,8′,9′,10′, 11′, 13a′-hexahydro-2′H,4′H-spiro [oxirane-2,1′-[2,4]epoxyfuro[3,2-b]naphtho[2,3-h]chromen]-2′-yl)methyl)carbamate]
Percent drug-linker remaining [1]: 75%
half-life at 100 µM (cathepsin B): ~15 min

Molecule: LL-D49194a1
Dose-limiting toxicity [3]: pancarditis was the only significant dose-limiting toxicity

Molecule: COc1c2c(c(O)c3c4c(c(C)cc13)C1OC3(CS)OC1[C@@](OC)(O4)[C@@]31CO1)C(=O)CCC2 (stereo partly drawn) [compound 34, (25,2'S,3a′R,13a′R)-12′-hydroxy-2′-(mercaptomethyl)-7′,13a′-dimethoxy-5′-methyl-3a′, 4′,8′,9′,10′,13a′-hexahydro-2′H,11′H-spiro [oxirane-2,1′-[2,4]epoxyfuro[3,2-b]naphtho[2,3-h]chromen]-11′-one]
GI50 (H460 cells; NCI-H460, 72 h): > 0.1 µM
Effect of the C16 modification on potency (in words) (H460 cells; comment on the data of Table 2 (H460 cells)): lack of activity
Decomposition of the unprotected thiol [4]: rapid, non-productive, decomposition pathway

Molecule: COc1c2c(c(O)c3c4c(c(C)cc13)C1OC3(COC5CC(C)(O)C(OC(C)=O)C(C)O5)OC1[C@@](OC)(O4)[C@@]31CO1)C(=O)CCC2 (stereo partly drawn) [TP-12]
GI50 (MES-SA/Dx-5 cells; MES-SA/Dx5, 72 h): 0.05 µM

GI50 (H460 cells; [6]): 0.022 µM
Molecule: CCCOCC12OC3c4c(C)cc5c(OC)c6c(c(O)c5c4O[C@](OC)(C3O1)[C@@]21CO1)C(=O)CCC6 (stereo partly drawn) [compound 22, (2R,2′R,3a′R,13a′R)-12′-Hydroxy-7′,13a′-dimethoxy-5′-methyl-2′-(propoxymethyl)-3a′, 4′,8′,9′,10′,13a′-hexahydro-2′H,11′H-spiro[oxirane-2,1′-[2.4]epoxyfuro[3,2-b]naphtho[2,3-h]chromen]-11′-one]

GI50 (H460 cells; [6]): 0.008 µM
Molecule: COc1c2c(c(O)c3c4c(c(C)cc13)C1O[C@]3(CO)O[C@H]1[C@@](OC)(O4)[C@@]3(O)CBr)C(=O)CCC2 (stereo partly drawn) [compound 21, (1R,2R,3aR,13aR)-1-(bromomethyl)-1,12-dihydroxy-2-(hydroxymethyl)-7,13a-dimethoxy-5-methyl-1,2,3a,4,8,9,10,13a-octahydro-11H-2,4-epoxyfuro[3,2-b]naphtho[2,3-h]chromen-11-one]
